Read-outs that look alike come from different tables or passages of the source.
How the values were obtained:
[1] = Cardiovascular safety pharmacology in dogs; type: in vivo, dog; details: Compound A administered alone
[2] = CNS safety pharmacology study in rats; type: in vivo, rat; details: Compound A administered alone
[3] = Paclitaxel pharmacokinetics in dogs after single oral dose with Compound A; details: dog, in vivo
[4] = system: transplanted human tumor cell lines; assay: Seven in vivo experiments, human tumor transplant cell lines in mice (overall); parameters: species or system mouse; details: paclitaxel administered IP or IV, compared with oral combination
Description: In these studies, tumor inhibition rate (IR %) was calculated as ([1-relative tumor growth in treated group/relative tumor growth in control group]×100). Tumor regression was calculated as (Mean Tumor WeightEnd of treatment/Mean tumor WeightBeginning of treatment)×100. Therefore, a value <100% for tumor regression indicates a decrease in tumor weight over the course of the study and a value >100% indicates an increase in tumor weight. Tumor growth delay was calculated as the median number of days to reach two tumor mass doublings.

[5] = clinical; details: human, in vivo, oral
Description: No premedication was allowed during this treatment sequence.

[6] = clinical; details: human, in vivo
Description: (§1) A 2-part study was conducted in subjects with advanced/metastatic or recurrent gastric cancer. […] A total of 56 subjects enrolled in this study: 10 subjects with advanced malignant tumors in Part 1 and 46 subjects with advanced gastric cancer in Part 2.

[7] = in vivo; details: dog, po, 6 mg/kg, paclitaxel 6 mg/kg with Compound A 3 mg/kg, single oral dose; for AUC(0-t): AUClast; for half-life: t1/2, dogs
[8] = human, in vivo
Description: as §1

[9] = Paclitaxel pharmacokinetics in rats after single oral dose with Compound A; details: rat, in vivo
[10] = clinical; details: human, in vivo; remark: listed apart in the source
[11] = dogs; for CL/F: paclitaxel 6 mg/kg with Compound A 3 mg/kg, single oral dose
[12] = for CL/F: po

For `COc1cc2c(cc1OC)CN(CCc1ccc(-n3nnc(-c4cc(OC)c(OC)cc4NC(=O)c4cc(=O)c5ccccc5o4)n3)cc1)CC2.CS(=O)(=O)O.O` [Compound A], the “reductions in PR and QRS intervals” value [1] was “absence” and the “reductions in body temperature” value [2] was “absence”.

`CC(=O)O[C@H]1C(=O)[C@@]2(C)[C@H]([C@H](OC(=O)c3ccccc3)[C@]3(O)C[C@H](OC(=O)[C@H](O)[C@@H](NC(=O)c4ccccc4)c4ccccc4)C(C)=C1C3(C)C)[C@]1(OC(C)=O)CO[C@@H]1C[C@@H]2O` [Paclitaxel, 5,20-Epoxy-1,2,4,7,10-13-hexahydroxytax-11-en-9-one-4,10-diacetate 2-benzoate 13-ester with (2R,3S)—N-benzoyl-3-phenylisoserine] gave an AUC(0-t) ([3]; 2 mg/kg) of 413 ng·h/mL, a Tmax ([3]; 2 mg/kg) of 0.5 h and an AUC(0-t) ([3]; 4 mg/kg) of 1330 ng·h/mL. The Tmax ([3]; 4 mg/kg) was 0.7 h, the AUC(0-t) ([3]; 6 mg/kg) was 2120 ng·h/mL and the Tmax ([3]; 6 mg/kg) was 0.5 h. For the same compound, the “activity against transplanted human tumor cell lines” value [4] was “generally less active”, the bioavailability [5] was ~13.4% and the half-life ([6]; oral) was 18.3 to 19.7 h. For the same compound, the AUC(0-t) ([6]; oral, AUC0-24, range across dose levels, Day 1) was 611 to 894 ng·h/mL, the AUC(0-t) ([6]; oral, AUC0-24, range across dose levels, Day 2) was 735 to 1080 ng·h/mL and the Cmax ([6]; oral, Cmax, range across dose levels, Day 1) was 202 to 280 ng/mL. For the same compound, the Cmax ([6]; oral, Cmax, range across dose levels, Day 2) was 159 to 315 ng/mL, the Cmax ([6]; po, 90 mg/m2, Paclitaxel Cmax, Mean (SD), 90 mg/m^2, Day 1, N 2, two consecutive daily oral doses) was 202 ng/mL and the Cmax ([6]; po, 90 mg/m2, Paclitaxel Cmax, Mean (SD), 90 mg/m^2, Day 2, N 2, two consecutive daily oral doses) was 315 ng/mL. The Cmax ([6]; po, 120 mg/m2, Paclitaxel Cmax, Mean (SD), 120 mg/m^2, Day 2, N 3, two consecutive daily oral doses) was 159 ng/mL, the AUC(0-t) ([6]; po, 150 mg/m2) was 894 ng·h/mL and the Cmax ([6]; po, 150 mg/m2) was 251 ng/mL. The Cmax ([6]; po, 150 mg/m2, Paclitaxel Cmax, Mean (SD), 150 mg/m^2, Day 2, N 3, two consecutive daily oral doses) was 276 ng/mL, the AUC(0-t) ([7]; dogs, Fasted) was 1600 ± 416 ng·h/mL and the AUC(0-t) ([7]; dogs, Fed) was 849 ± 120 ng·h/mL. The Cmax ([7]; Cmax, dogs, Fed) was 299 ± 54.6 ng/mL, the Tmax ([7]; dogs, Fasted) was 0.5 h and the Tmax ([7]; dogs, Fed) was 0.7 ± 0.2 h. For the same compound, the Vd/F ([7]; dogs, Fasted) was 57.9 ± 17.4 L, the Vd/F ([7]; dogs, Fed) was 88 ± 19.6 L and the half-life ([7]; Fasted) was 9.4 ± 0.3 h. For the same compound, the half-life ([7]; Fed) was 9.9 ± 2.7 h, the “Overall exposure on Day 2, higher than Day 1” value [8] was 20-30% and the AUC(0-t) ([9]; 5 mg/kg) was 333 ng·h/mL. The Cmax ([9]; 5 mg/kg) was 103 ng/mL, the Tmax ([9]; 5 mg/kg) was 0.6 h and the AUC(0-t) ([9]; 10 mg/kg) was 1030 ng·h/mL. The Cmax ([9]; 10 mg/kg) was 356 ng/mL, the Tmax ([9]; 10 mg/kg) was 0.7 h and the AUC(0-t) ([9]; 20 mg/kg) was 3010 ng·h/mL. It also gave a Cmax ([9]; 20 mg/kg) of 852 ng/mL, a Tmax ([9]; 20 mg/kg) of 1.2 h and an AUC(0-t) ([9]; 30 mg/kg) of 6640 ng·h/mL. The Cmax ([9]; 30 mg/kg) was 1760 ng/mL, the Tmax ([9]; 30 mg/kg) was 1.2 h and the half-life ([9]; 30 mg/kg) was 6 h. For the same compound, the AUC(0-t) ([9]; 40 mg/kg) was 11100 ng·h/mL, the Cmax ([9]; 40 mg/kg) was 2490 ng/mL and the Tmax ([9]; 40 mg/kg) was 1.5 h. It also gave a half-life ([9]; 40 mg/kg) of 5.5 h, an AUC(0-t) ([9]; 50 mg/kg) of 13100 ng·h/mL and a Cmax ([9]; 50 mg/kg) of 3070 ng/mL. The half-life ([9]; 50 mg/kg) was 5.3 h, the half-life [10] was 19.9 to 32.1 h and the AUC(0-inf) ([10]; po, 60 mg/m2) was 727 ng·h/mL. The AUC(0-t) ([10]; po, 60 mg/m2) was 584 ng·h/mL, the Cmax ([10]; po, 60 mg/m2) was 150 ng/mL and the MRT inf ([10]; po, 60 mg/m2) was 28.6 h. For the same compound, the Vd/F ([10]; po, 60 mg/m2) was 9130 L, the half-life ([10]; po, 60 mg/m2) was 32.1 h and the AUC(0-inf) ([10]; po, 120 mg/m2) was 1840 ng·h/mL. It also gave an AUC(0-t) ([10]; po, 120 mg/m2) of 1610 ng·h/mL, a CL renal ([10]; po, 120 mg/m2) of 50 mL/min and an MRT inf ([10]; po, 120 mg/m2) of 17 h. For the same compound, the Vd/F ([10]; po, 120 mg/m2) was 4040 L, the half-life ([10]; po, 120 mg/m2) was 22 h and the AUC(0-inf) ([10]; po, 180 mg/m2) was 1980 ng·h/mL. It also gave an AUC(0-t) ([10]; po, 180 mg/m2) of 1670 ng·h/mL, a CL renal ([10]; po, 180 mg/m2) of 30 mL/min and a Cmax ([10]; po, 180 mg/m2) of 432 ng/mL. It also gave an MRT inf ([10]; po, 180 mg/m2) of 21.9 h, a Vd/F ([10]; po, 180 mg/m2) of 6030 L and a half-life ([10]; po, 180 mg/m2) of 24.4 h. For the same compound, the AUC(0-inf) ([10]; po, 240 mg/m2) was 2970 ng·h/mL, the AUC(0-t) ([10]; po, 240 mg/m2) was 2550 ng·h/mL and the CL renal ([10]; po, 240 mg/m2) was 40 mL/min. It also gave a Cmax ([10]; po, 240 mg/m2) of 510 ng/mL, an MRT inf ([10]; po, 240 mg/m2) of 23.4 h and a Vd/F ([10]; po, 240 mg/m2) of 6010 L. For the same compound, the half-life ([10]; po, 240 mg/m2) was 25.7 h, the AUC(0-inf) ([10]; po, 300 mg/m2) was 3480 ng·h/mL and the AUC(0-t) ([10]; po, 300 mg/m2) was 3140 ng·h/mL. The CL renal ([10]; po, 300 mg/m2) was 33.3 mL/min, the Cmax ([10]; po, 300 mg/m2) was 920 ng/mL and the MRT inf ([10]; po, 300 mg/m2) was 16.2 h. It also gave a Vd/F ([10]; po, 300 mg/m2) of 4930 L, a half-life ([10]; po, 300 mg/m2) of 21.2 h and an AUC(0-inf) ([10]; po, 360 mg/m2) of 2850 ng·h/mL. It also gave an AUC(0-t) ([10]; po, 360 mg/m2) of 2510 ng·h/mL, a CL renal ([10]; po, 360 mg/m2) of 122 mL/min and an MRT inf ([10]; po, 360 mg/m2) of 18.7 h. It also gave a Vd/F ([10]; po, 360 mg/m2) of 6840 L, a half-life ([10]; po, 360 mg/m2) of 20.8 h and an AUC(0-inf) ([10]; po, 420 mg/m2) of 3730 ng·h/mL. For the same compound, the AUC(0-t) ([10]; po, 420 mg/m2) was 3410 ng·h/mL, the CL renal ([10]; po, 420 mg/m2) was 48.3 mL/min and the MRT inf ([10]; po, 420 mg/m2) was 14.7 h. For the same compound, the Vd/F ([10]; po, 420 mg/m2) was 7180 L, the half-life ([10]; po, 420 mg/m2) was 19.9 h and the “AUC, fasted group compared to fed group” value [11] was ~2 fold. For the same compound, the “Cmax, fasted group compared to fed group” value [11] was ~2 fold, the CL/F ([11]; Fasted) was 4.2 ± 1.2 L/h and the CL/F ([11]; Fed) was 6.4 ± 1.3 L/h. The “Mean apparent clearance (CL/F)” value ([12]; human, in vivo) was “up to 244.9 L/h”, the CL/F ([12]; human, in vivo, 60 mg/m2) was 178.4 L/h and the CL/F ([12]; human, in vivo, 180 mg/m2) was 173.4 L/h. The CL/F ([12]; human, in vivo, 240 mg/m2) was 147.6 L/h, the CL/F ([12]; human, in vivo, 360 mg/m2) was 228.7 L/h and the CL/F ([12]; human, in vivo, 420 mg/m2) was 244.9 L/h. The MTD ([12]; oral paclitaxel 60 to 420 mg/m^2 on days 1, 8 and 15 of 28-day cycle with Compound A) was “not reached” and the overall toxicity profile ([12]; orally administered in combination with Compound A, neutropenia the adverse event associated with discontinuation) was “consistent with that of paclitaxel”.

— US20180207148A1 (priority 2015, published 2018)
